Test results from patent publication US8758816B2, “Compositions comprising azelastine and methods of use thereof” (priority 2004, dated 2014).

System: patients with seasonal allergic rhinitis (SAR)
Test: MP 428 study: individual symptom severity scores (runny nose, itchy nose, sneezing, congestion; 0-3 scale)
Assay type: in vivo, human
Conditions: Intent-to-Treat Population
Experimental: A two-week, randomized, double-blind study, which evaluated the effects of the co-administration of ASTELIN® (azelastine hydrochloride (HCl)) and FLONASE® (fluticasone propionate) compared to either product alone in patients with seasonal allergic rhinitis (SAR) was conducted during the 2006 Texas mountain cedar season. After a 5-day placebo lead-in period, 151 patients with moderate-to-severe allergic rhinitis symptoms were randomized to either: (1) (49 total patients) ASTELIN® (azelastine hydrochloride (HCl)) plus placebo saline nasal spray 2 sprays per nostril, 15 minutes apart, twice daily (AM & PM); (2) (50 total patients) FLONASE® (fluticasone propionate) plus placebo saline nasal spray, 2 sprays per nostril, 15 minutes apart, once daily (AM) and two sessions of placebo saline nasal spray, 2 sprays per nostril, 15 minutes apart (PM); or (3) (52 total patients) the co-administration of ASTELIN® (azelastine hydrochloride (HCl)) 2 sprays per nostril plus FLONASE® (fluticasone propionate) 2 sprays per nostril (AM), 15 minutes apart, and ASTELIN® (azelastine hydrochloride (HCl)) 2 sprays per nostril plus placebo saline nasal spray, 15 minutes apart, (PM) for a 2-week double-blind treatment period.
The primary efficacy variable was the change from baseline in the Total Nasal Symptom Score (TNSS), which comprised sneezing, itchy nose, runny nose, and nasal congestion (individual symptoms scores were assigned a value between 0 and 3, where 0=no symptoms and 3=severe symptoms). This study was not statistically designed to assess the differences between ASTELIN® and FLONASE®.
The results of the clinical trial are summarized and presented in Appendix A hereinbelow and in FIGS. 1-6. […] FIGS. 2-5 show the mean improvement in severity score (0-3 scale) from baseline for the symptoms of runny nose, itchy nose, sneezing and congestion, respectively.

Compound: CCC(=O)O[C@]1(C(=O)SCF)[C@H](C)C[C@H]2[C@@H]3C[C@H](F)C4=CC(=O)C=C[C@]4(C)[C@@]3(F)[C@@H](O)C[C@@]21C [Fluticasone, fluticasone propionate]
- Change from Baseline in AM and PM Combined Nasal Symptom Score: Congestion, LS Mean (Day 2): −0.59
- Change from Baseline in AM and PM Combined Nasal Symptom Score: Congestion, Mean (Day 2): −0.65
- Change from Baseline in AM and PM Combined Nasal Symptom Score: Congestion, Median (Day 2): −0.30
- Change from Baseline in AM and PM Combined Nasal Symptom Score: Itchy Nose, LS Mean (Day 2): −0.61
- Change from Baseline in AM and PM Combined Nasal Symptom Score: Itchy Nose, Mean (Day 2): −0.66
- Change from Baseline in AM and PM Combined Nasal Symptom Score: Itchy Nose, Median (Day 2): −0.40
- Change from Baseline in AM and PM Combined Nasal Symptom Score: Runny Nose, LS Mean (Day 2): −0.86
- Change from Baseline in AM and PM Combined Nasal Symptom Score: Runny Nose, Mean (Day 2): −0.90
- Change from Baseline in AM and PM Combined Nasal Symptom Score: Runny Nose, Median (Day 2): −1.00
- Change from Baseline in AM and PM Combined Nasal Symptom Score: Sneezing, LS Mean (Day 2): −1.06
- Change from Baseline in AM and PM Combined Nasal Symptom Score: Sneezing, Mean (Day 2): −1.03
- Change from Baseline in AM and PM Combined Nasal Symptom Score: Sneezing, Median (Day 2): −1.00
- Percent Change from Baseline in AM and PM Combined Nasal Symptom Score: Congestion, LS Mean (Day 2): −10.84%
- Percent Change from Baseline in AM and PM Combined Nasal Symptom Score: Congestion, Mean (Day 2): −11.97%
- Percent Change from Baseline in AM and PM Combined Nasal Symptom Score: Congestion, Median (Day 2): −5.66%
- Percent Change from Baseline in AM and PM Combined Nasal Symptom Score: Itchy Nose, LS Mean (Day 2): −12.72%
- Percent Change from Baseline in AM and PM Combined Nasal Symptom Score: Itchy Nose, Mean (Day 2): −14.27%
- Percent Change from Baseline in AM and PM Combined Nasal Symptom Score: Itchy Nose, Median (Day 2): −8.39%
- Percent Change from Baseline in AM and PM Combined Nasal Symptom Score: Runny Nose, LS Mean (Day 2): −12.11%
- Percent Change from Baseline in AM and PM Combined Nasal Symptom Score: Runny Nose, Mean (Day 2): −12.95%
- Percent Change from Baseline in AM and PM Combined Nasal Symptom Score: Runny Nose, Median (Day 2): −16.67%
- Percent Change from Baseline in AM and PM Combined Nasal Symptom Score: Sneezing, LS Mean (Day 2): −22.64%
- Percent Change from Baseline in AM and PM Combined Nasal Symptom Score: Sneezing, Mean (Day 2): −22.69%
- Percent Change from Baseline in AM and PM Combined Nasal Symptom Score: Sneezing, Median (Day 2): −16.67%
- Change from Baseline in AM and PM Combined Nasal Symptom Score: Congestion, LS Mean (Day 3): −0.81
- Change from Baseline in AM and PM Combined Nasal Symptom Score: Congestion, Mean (Day 3): −0.90
- Change from Baseline in AM and PM Combined Nasal Symptom Score: Congestion, Median (Day 3): −0.67
- Change from Baseline in AM and PM Combined Nasal Symptom Score: Itchy Nose, LS Mean (Day 3): −0.99
- Change from Baseline in AM and PM Combined Nasal Symptom Score: Itchy Nose, Mean (Day 3): −0.97
- Change from Baseline in AM and PM Combined Nasal Symptom Score: Itchy Nose, Median (Day 3): −0.67
- Change from Baseline in AM and PM Combined Nasal Symptom Score: Runny Nose, LS Mean (Day 3): −0.96
- Change from Baseline in AM and PM Combined Nasal Symptom Score: Runny Nose, Mean (Day 3): −1.05
- Change from Baseline in AM and PM Combined Nasal Symptom Score: Runny Nose, Median (Day 3): −0.80
- Change from Baseline in AM and PM Combined Nasal Symptom Score: Sneezing, LS Mean (Day 3): −1.29
- Change from Baseline in AM and PM Combined Nasal Symptom Score: Sneezing, Mean (Day 3): −1.21
- Change from Baseline in AM and PM Combined Nasal Symptom Score: Sneezing, Median (Day 3): −1.00
- Percent Change from Baseline in AM and PM Combined Nasal Symptom Score: Congestion, LS Mean (Day 3): −15.34%
- Percent Change from Baseline in AM and PM Combined Nasal Symptom Score: Congestion, Mean (Day 3): −16.63%
- Percent Change from Baseline in AM and PM Combined Nasal Symptom Score: Congestion, Median (Day 3): −11.76%
- Percent Change from Baseline in AM and PM Combined Nasal Symptom Score: Itchy Nose, LS Mean (Day 3): −22.88%
- Percent Change from Baseline in AM and PM Combined Nasal Symptom Score: Itchy Nose, Mean (Day 3): −22.41%
- Percent Change from Baseline in AM and PM Combined Nasal Symptom Score: Itchy Nose, Median (Day 3): −15.32%
- Percent Change from Baseline in AM and PM Combined Nasal Symptom Score: Runny Nose, LS Mean (Day 3): −17.15%
- Percent Change from Baseline in AM and PM Combined Nasal Symptom Score: Runny Nose, Mean (Day 3): −18.81%
- Percent Change from Baseline in AM and PM Combined Nasal Symptom Score: Runny Nose, Median (Day 3): −13.79%
- Percent Change from Baseline in AM and PM Combined Nasal Symptom Score: Sneezing, LS Mean (Day 3): −29.62%
- Percent Change from Baseline in AM and PM Combined Nasal Symptom Score: Sneezing, Mean (Day 3): −28.44%
- Percent Change from Baseline in AM and PM Combined Nasal Symptom Score: Sneezing, Median (Day 3): −30.09%
- Change from Baseline in AM and PM Combined Nasal Symptom Score: Congestion, LS Mean (Day 4): −1.00
- Change from Baseline in AM and PM Combined Nasal Symptom Score: Congestion, Mean (Day 4): −1.06
- Change from Baseline in AM and PM Combined Nasal Symptom Score: Congestion, Median (Day 4): −1.00
- Change from Baseline in AM and PM Combined Nasal Symptom Score: Itchy Nose, LS Mean (Day 4): −0.98
- Change from Baseline in AM and PM Combined Nasal Symptom Score: Itchy Nose, Mean (Day 4): −0.97
- Change from Baseline in AM and PM Combined Nasal Symptom Score: Itchy Nose, Median (Day 4): −0.90
- Change from Baseline in AM and PM Combined Nasal Symptom Score: Runny Nose, LS Mean (Day 4): −1.12
- Change from Baseline in AM and PM Combined Nasal Symptom Score: Runny Nose, Mean (Day 4): −1.17
- Change from Baseline in AM and PM Combined Nasal Symptom Score: Runny Nose, Median (Day 4): −1.15
- Change from Baseline in AM and PM Combined Nasal Symptom Score: Sneezing, LS Mean (Day 4): −1.42
- Change from Baseline in AM and PM Combined Nasal Symptom Score: Sneezing, Mean (Day 4): −1.33
- Change from Baseline in AM and PM Combined Nasal Symptom Score: Sneezing, Median (Day 4): −1.10
- Percent Change from Baseline in AM and PM Combined Nasal Symptom Score: Congestion, LS Mean (Day 4): −18.75%
- Percent Change from Baseline in AM and PM Combined Nasal Symptom Score: Congestion, Mean (Day 4): −19.51%
- Percent Change from Baseline in AM and PM Combined Nasal Symptom Score: Congestion, Median (Day 4): −16.67%
- Percent Change from Baseline in AM and PM Combined Nasal Symptom Score: Itchy Nose, LS Mean (Day 4): −20.59%
- Percent Change from Baseline in AM and PM Combined Nasal Symptom Score: Itchy Nose, Mean (Day 4): −20.31%
- Percent Change from Baseline in AM and PM Combined Nasal Symptom Score: Itchy Nose, Median (Day 4): −16.67%
- Percent Change from Baseline in AM and PM Combined Nasal Symptom Score: Runny Nose, LS Mean (Day 4): −17.17%
- Percent Change from Baseline in AM and PM Combined Nasal Symptom Score: Runny Nose, Mean (Day 4): −18.21%
- Percent Change from Baseline in AM and PM Combined Nasal Symptom Score: Runny Nose, Median (Day 4): −22.33%
- Percent Change from Baseline in AM and PM Combined Nasal Symptom Score: Sneezing, LS Mean (Day 4): −31.80%
- Percent Change from Baseline in AM and PM Combined Nasal Symptom Score: Sneezing, Mean (Day 4): −30.67%
- Percent Change from Baseline in AM and PM Combined Nasal Symptom Score: Sneezing, Median (Day 4): −27.36%
- Change from Baseline in AM and PM Combined Nasal Symptom Score: Congestion, LS Mean (Day 5): −1.00
- Change from Baseline in AM and PM Combined Nasal Symptom Score: Congestion, Mean (Day 5): −1.06
- Change from Baseline in AM and PM Combined Nasal Symptom Score: Congestion, Median (Day 5): −0.83
- Change from Baseline in AM and PM Combined Nasal Symptom Score: Itchy Nose, LS Mean (Day 5): −1.16
- Change from Baseline in AM and PM Combined Nasal Symptom Score: Itchy Nose, Mean (Day 5): −1.15
- Change from Baseline in AM and PM Combined Nasal Symptom Score: Itchy Nose, Median (Day 5): −1.00
- Change from Baseline in AM and PM Combined Nasal Symptom Score: Runny Nose, LS Mean (Day 5): −1.42
- Change from Baseline in AM and PM Combined Nasal Symptom Score: Runny Nose, Mean (Day 5): −1.43
- Change from Baseline in AM and PM Combined Nasal Symptom Score: Runny Nose, Median (Day 5): −1.05
- Change from Baseline in AM and PM Combined Nasal Symptom Score: Sneezing, LS Mean (Day 5): −1.61
- Change from Baseline in AM and PM Combined Nasal Symptom Score: Sneezing, Mean (Day 5): −1.52
- Change from Baseline in AM and PM Combined Nasal Symptom Score: Sneezing, Median (Day 5): −1.33
